Laboratory results published in patent US20240059712A1, “BIFUNCTIONAL COMPOUNDS AND PHARMACEUTICAL USES THEREOF” (priority 2022, published 2024).

Legend:
[1] = target: T1, KRAS^G12D protein (Homo sapiens, UniProt P01116, G12D); assay: Protein degradation study (western blot) in Aspc-1 cells; type: cell-based; conditions: for inhibition at 0.005 µM: Aspc-1 cells treated with 0.005 μM compound; for inhibition at 0.005 µM / inhibition at 0.05 µM / inhibition at 0.001 µM: read-out: Rate of degradation; for inhibition at 0.05 µM: Aspc-1 cells treated with 50 nM compound; for DC50: Aspc-1 cells, half-maximum degradation concentration, read-out: DC50 of compounds induced Ras G12D protein degradation; for inhibition at 0.001 µM: Aspc-1 cells treated with 1 nM compound
T1 construct: host or cells: Aspc-1 (AsPC-1) cells
T1 sequence (P01116 1-188 isoform P01116-2 G12D): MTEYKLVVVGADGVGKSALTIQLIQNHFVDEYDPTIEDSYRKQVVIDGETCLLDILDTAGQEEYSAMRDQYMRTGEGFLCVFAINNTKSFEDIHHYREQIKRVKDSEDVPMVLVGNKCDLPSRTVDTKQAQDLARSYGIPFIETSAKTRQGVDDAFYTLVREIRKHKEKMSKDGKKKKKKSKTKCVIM
Procedure: Aspc-1 (Cobioer, CBP60546) cells in exponential growth phase were inoculated on a 6-well cell culture plate (Corning, 3516) at density of 1E6/well; and cells in the plate were cultured in 37° C. incubator containing 5%-carbon dioxide. The next day, testing compounds were dissolved in DMSO (Sigma, RNBF5902) for the preparation of a 10-mM concentration stock solution. The stock solution was diluted with complete medium (RPMI-1640 supplemented with 10% fetal bovine serum, 1% penicillin-streptomycin), yielding working solutions of various concentrations. The plate, after the addition of compounds, was placed in a 5% carbon dioxide incubator, and incubated at 37° C. for 24 hours (final DMSO concentration was 0.1%). The plate was then removed from the incubator, and the cells were washed twice with precooled PBS (Gibco, 14190250), followed by addition of 80-μL RIPA lysis buffer (containing protease inhibitor (Invitrogen™, AM2696)) to each well. The adherent cells were scraped off with a cell scraper, and the cell lysate was transferred to a 1.5-mL centrifuge tube followed with a 30-minute incubation on ice. The lysate was then clarified with centrifugation at 14000 rpm for 10 min at 4° C. The supernatant was transferred into a new 1.5-mL centrifuge tube, and protein concentration was measured with BCA protein detection kit (Thermo Fisher, 23225). G12D protein level was assessed by western blot.
A mixture of cell lysate (40 μL) and loading buffer (10 μL, 5×SDS (Beyotime, P0015L)) was denatured in a water-bath at 95° C. for 10 min. The denatured protein sample, at 30 μL/well, was loaded into corresponding well of 4-20% Bis-Tris gel (Kingsley, M00656). Protein samples were initially electrophoresed at 80 V for 30 minutes, followed by 120 V for 40 minutes, until the bromophenol blue strip ran to an appropriate position. After electrophoresis, iBlot2 (Life Technologies, IB21001) was used to transfer the separated samples onto PVDF film. The PVDF membrane was washed with double-distilled water and then blocked in TBST (Thermo Scientific, 28360) buffer containing 5% non-fat milk, for 2 hours. Blocked membrane was rinsed with tris-buffered saline tween-20 (Thermo Scientific, 28360, TBST) three times, 10 minutes each. Membrane was then incubated with 1:1000 diluted KRAS primary antibody (CST, cat #14429S) overnight at 4° C. Membrane was rinsed in a way described previously followed by 1 hour incubation of secondary antibody at room temperature. After washing the film for three times with TBST, ECL color developing solution was applied, and image was captured with Biorad Chemi Doc gel imager. The band gray value was quantified (Image Lab), and protein degradation level was calculated according to the following formula:
Level of RAS protein expression=(RAS-compound/GAPDH)/(RAS-DMSO/GAPDH)
Level of degradation (%)=(1−Rate of RAS protein expression)×100
Symbols of −, +, ++, +++ indicate that the degradation level of Ras protein induced by testing compounds are […], 11 to 30%, 31 to 60% and greater than 60%, respectively.
Half-maximum degradation concentrations (DC50s) of testing compounds were calculated using GraphPad Prism and their values were shown in Table 6. Symbols of […] represent DC50s equal or less than 10 nM, 11-50 nM, 51-100 nM, and 101-200 nM, respectively.

[2] = tested on: Aspc-1 cells; assay: Cell proliferation study (Cell Titer Glo, 72 hours); type: cell-based; conditions: Homo sapiens, ASPC1, read-out: IC50, inhibitory effect on cellular proliferation
Procedure: Aspc-1 (Cobioer, CBP60546) cells were grown in RPMI 1640 (Gibco, 61870127) supplemented with 10% fetal bovine serum (Gibco, 10099141), 1% penicillin-streptomycin (Gibco, 15070-063). Aspc-1 cells in exponential growth phase were seeded into 96-well plate (Corning, 3599) at density of 4×10^3/well. Cells were cultured overnight at 37° C. with 5% CO2. On the next day, cells were treated with compound at various concentrations for 72 hours in 37° C., 5% CO2 incubator (final DMSO concentration is 0.1%). After treatment, the cell plates were added 100 μL Cell Tier Glo (Promega, G7573) to every well and incubated at RT for 10 minutes. Cell growth status was measured with Cell Tier Glo (Promega, G7573) following manufacturer's directions. The inhibition curve was obtained with GraphPad 7.0 software using four-parameter equation.

Row | Compound | inhibition at 0.005 µM ([1]; ASPC1, 24 h, 24 hours) [%] | inhibition at 0.05 µM ([1]; ASPC1, 24 h, 24 hours) [%] | DC50 [1] [nM] | IC50 [2] [nM] | inhibition at 0.001 µM ([1]; ASPC1, 24 h, 24 hours) [%] | inhibition at 0.1 µM ([1]; ASPC1, 24 h, Aspc-1 cells treated with 0.1 μM compound, 24 hours, read-out: Rate of protein degradation) [%]
1 | C#Cc1c(F)ccc2cc(O)cc(-c3ncc4c(N5CC6CCC(C5)N6)nc(OCC5(CN6CCC7(CC6)CC(N6CCC(c8ccc9c(N%10CCC(=O)NC%10=O)nn(C)c9c8)CC6)C7)CC5)nc4c3F)c12 [Compound 1a] | > 60 | > 60 | < 10 | < 100 |  | 
2 | C#Cc1c(F)ccc2cc(O)cc(-c3ncc4c(N5CC6CCC(C5)N6)nc(OCC5(CN6CCC7(CC6)CC(N6CCC(c8cc9c(cc8F)c(N8CCC(=O)NC8=O)nn9C)CC6)C7)CC5)nc4c3F)c12 [Compound 2a] | > 60 | > 60 | < 10 | < 100 |  | 
3 | C#Cc1c(F)ccc2cc(O)cc(-c3ncc4c(N5CC6CCC(C5)N6)nc(OCC5(CN6CCC7(CC6)CC(N6CCC(c8ccc(NC9CCC(=O)NC9=O)cc8F)CC6)C7)CC5)nc4c3F)c12 (stereo not shown) [Compound 12a] | > 60 | > 60 | < 10 | < 100 | > 60 | 
4 | Nc1cc(Cl)c(C(F)(F)F)c(-c2ncc3c(N4CC5CCC(C4)N5)nc(OCC4(CN5CCC6(CC5)CC(N5CCC(c7ccc8c9c(cccc79)C(=O)N8C7CCC(=O)NC7=O)CC5)C6)CC4)nc3c2F)c1 (stereo not shown) [Compound 13a] | > 60 | > 60 | < 10 | < 100 | > 60 | 
5 | C#Cc1c(F)ccc2cccc(-c3ncc4c(N5CC6CCC(C5)N6)nc(OCC5(CN6CCC7(CC6)CC(N6CCC(c8ccc9c%10c(cccc8%10)C(=O)N9C8CCC(=O)NC8=O)CC6)C7)CC5)nc4c3F)c12 (stereo not shown) [Compound 14a] | > 60 | > 60 | < 10 | 101 to 1000 | > 60 | 
6 | C#Cc1c(F)ccc2cccc(-c3ncc4c(N5CC6CCC(C5)N6)nc(OCC5(CN6CCC7(CC6)CC(N6CCC(c8ccc9c(C%10CCC(=O)NC%10=O)nn(C)c9c8)CC6)C7)CC5)nc4c3F)c12 (stereo not shown) [Compound 16a] | > 60 | > 60 |  | 101 to 1000 |  | 
7 | Cn1nc(C2CCC(=O)NC2=O)c2ccc(C3CCN(C4CC5(CCN(CC6(COc7nc(N8CC9CCC(C8)N9)c8cnc(-c9cc(N)cc(Cl)c9C(F)(F)F)c(F)c8n7)CC6)CC5)C4)CC3)cc21 (stereo not shown) [Compound 17a] | > 60 | > 60 | < 10 | < 100 |  | 
8 | Nc1cc(Cl)c(C(F)(F)F)c(-c2ncc3c(N4CC5CCC(C4)N5)nc(OCC4(CN5CCC6(CC5)CC(N5CCC(c7ccc(NC8CCC(=O)NC8=O)cc7F)CC5)C6)CC4)nc3c2F)c1 (stereo not shown) [Compound 21a] | 31 to 60 | > 60 | < 10 | < 100 |  | 
9 | C#Cc1c(F)ccc2cc(O)cc(-c3ccc4c(N5CC6CCC(C5)N6)nc(OCC5(CN6CCC7(CC6)CC(N6CCC(c8ccc9c(C%10CCC(=O)NC%10=O)nn(C)c9c8)CC6)C7)CC5)nc4c3F)c12 (stereo not shown) [Compound 23a] | > 60 | > 60 | < 10 | < 100 |  | 
10 | C#Cc1c(F)ccc2cc(O)cc(-c3ncc4c(N5CC6CCC(C5)N6)nc(OCC5(CN6CCC7(CCC(C(=O)N8CCC(c9ccc%10c(C%11CCC(=O)NC%11=O)nn(C)c%10c9)CC8)CC7)CC6)CC5)nc4c3F)c12 (stereo not shown) [Compound 24a] | > 60 | 31 to 60 | < 10 | < 100 |  | 
11 | C#Cc1c(F)ccc2cc(O)cc(-c3ncc4c(N5CC6CCC(C5)N6)nc(OCC5(CN6CCC7(CCC(CN8CCC(c9ccc%10c(C%11CCC(=O)NC%11=O)nn(C)c%10c9)CC8)CC7)CC6)CC5)nc4c3F)c12 (stereo not shown) [Compound 26a] | > 60 | 11 to 30 | < 10 | < 100 |  | 
12 | C#Cc1c(F)ccc2cc(O)cc(-c3ncc4c(N5CC6CCC(C5)N6)nc(OCC5(CN6CCC7(CC6)CC(C(=O)N6CCC(c8ccc9c(C%10CCC(=O)NC%10=O)nn(C)c9c8)CC6)C7)CC5)nc4c3F)c12 (stereo not shown) [Compound 28a] | > 60 | > 60 | < 10 | < 100 |  | 
13 | C#Cc1c(F)ccc2cc(O)cc(-c3ncc4c(N5CC6CCC(C5)N6)nc(OCC5(CN6CCC7(CC6)CC(CN6CCC(c8ccc9c(C%10CCC(=O)NC%10=O)nn(C)c9c8)CC6)C7)CC5)nc4c3F)c12 (stereo not shown) [Compound 29a] | > 60 | 11 to 30 | < 10 | < 100 |  | 
14 | C#Cc1c(F)ccc2cc(O)cc(-c3ncc4c(N5CC6CCC(C5)N6)nc(OCC5(CN6CCC(N7CC(CN8CCC(c9ccc%10c(C%11CCC(=O)NC%11=O)nn(C)c%10c9)CC8)C7)CC6)CC5)nc4c3F)c12 (stereo not shown) [Compound 30a] | > 60 | > 60 | < 10 | < 100 |  | 
15 | C#Cc1c(F)ccc2cc(O)cc(-c3ncc4c(N5CC6CCC(C5)N6)nc(OCC5(CN6CC7(CCC(N8CCC(c9ccc%10c(C%11CCC(=O)NC%11=O)nn(C)c%10c9)CC8)CC7)C6)CC5)nc4c3F)c12 (stereo not shown) [Compound 31a] | > 60 | > 60 | < 10 | < 100 |  | 
16 | C#Cc1c(F)ccc2cc(O)cc(-c3ncc4c(N5CC6CCC(C5)N6)nc(OCC5(CN6CC7(CCC(CN8CCC(c9ccc%10c(C%11CCC(=O)NC%11=O)nn(C)c%10c9)CC8)CC7)C6)CC5)nc4c3F)c12 (stereo not shown) [Compound 32a] | > 60 | 31 to 60 | < 10 | < 100 |  | 
17 | C#Cc1c(F)ccc2cc(O)cc(-c3ncc4c(N5CC6CCC(C5)N6)nc(N5CC(N6CCN(C(=O)CN7CCC(c8ccc9c(C%10CCC(=O)NC%10=O)nn(C)c9c8)CC7)CC6)C5)nc4c3F)c12 (stereo not shown) [Compound 120] |  |  |  |  |  | 11 to 30
